Measured values reported in US20240390340A1 (INCYTE CORPORATION, priority 2023, published 2024).

Experiments:
[1] = target: KRAS G12D (Homo sapiens, UniProt P01116, G12D); experiment: GDP-GTP exchange assay (bodipy-GDP/GppNHp, SOS1), KRAS G12D; assay type: biochemical; settings: bodipy-loaded KRAS G12D 2.5 nM, 4 h pre-incubation; value for the most potent isomer quoted for certain compounds; read-out: G12D (KRAS G12D exchange assay IC50)
[2] = target: KRAS G12V (Homo sapiens, UniProt P01116, G12V); experiment: GDP-GTP exchange assay (bodipy-GDP/GppNHp, SOS1), KRAS G12V; assay type: biochemical; settings: KRAS G12V mutant; value for the most potent isomer quoted for certain compounds; read-out: G12V (KRAS G12V exchange assay IC50)
Chain of KRAS G12V (P01116 1-188 isoform P01116-2 G12V): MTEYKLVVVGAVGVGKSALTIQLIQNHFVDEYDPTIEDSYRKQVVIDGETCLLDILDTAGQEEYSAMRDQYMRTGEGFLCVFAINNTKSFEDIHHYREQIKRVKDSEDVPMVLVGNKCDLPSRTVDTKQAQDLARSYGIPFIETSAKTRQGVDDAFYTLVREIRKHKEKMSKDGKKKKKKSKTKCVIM

Chain of KRAS G12D (P01116 1-188 isoform P01116-2 G12D): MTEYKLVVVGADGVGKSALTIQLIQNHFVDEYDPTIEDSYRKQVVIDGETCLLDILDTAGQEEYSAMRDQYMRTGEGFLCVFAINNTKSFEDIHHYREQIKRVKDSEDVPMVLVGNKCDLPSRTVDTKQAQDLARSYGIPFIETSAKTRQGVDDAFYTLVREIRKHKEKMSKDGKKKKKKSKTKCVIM

N#CCCc1cc2c(nc(C3=CCOCC3)c3cc([C@H]4C[C@H](OCc5c(F)cccc5F)CN4C(=O)C4CC4)n([C@H]4[C@H]5CN[C@@H]4C5)c32)c(F)c1-c1cccc(Cl)c1Cl [Example 218]
IC50 [1]: ≤ 100 nM | IC50 [2]: ≤ 100 nM

CN1CC=C(c2nc3c(F)c(-c4cccc(Cl)c4Cl)c(CCC#N)cc3c3c2cc([C@H]2C[C@H](OCc4c(F)cccc4F)CN2C(=O)C2CC2)n3[C@H]2[C@H]3CN[C@@H]2C3)CC1 [Example 219]
IC50 [1]: ≤ 100 nM | IC50 [2]: ≤ 100 nM

CNC(=O)c1ccc(-c2nc3c(F)c(-c4cccc(Cl)c4Cl)c(CCC#N)cc3c3c2cc([C@H]2C[C@H](OCc4c(F)cccc4F)CN2C(=O)C2CC2)n3[C@H]2[C@H]3CN[C@@H]2C3)cn1 [Example 220]
IC50 [1]: ≤ 100 nM | IC50 [2]: ≤ 100 nM

COc1ncccc1O[C@H]1C[C@H](c2cc3c(C(C)O)nc4c(F)c(-c5cccc(Cl)c5Cl)c(CCC#N)cc4c3n2[C@H]2[C@H]3CN[C@@H]2C3)N(C(=O)C2CC2)C1 (some centres unmarked) [Example 221]
IC50 [1]: ≤ 100 nM | IC50 [2]: ≤ 100 nM

Cc1nc2c(F)c(-c3cccc(Cl)c3Cl)c(CCC#N)cc2c2c1cc([C@H]1C[C@H](Oc3cccc(C(=O)N4CCOCC4)c3)CN1C(=O)C1CC1)n2[C@H]1[C@H]2CN[C@@H]1C2 [Example 222]
IC50 [1]: ≤ 100 nM | IC50 [2]: ≤ 100 nM

Cc1nc2c(F)c(-c3cccc(Cl)c3Cl)c(CCC#N)cc2c2c1cc([C@H]1C[C@H](Oc3cccc(C(=O)N4CCCC4)c3)CN1C(=O)C1CC1)n2[C@H]1[C@H]2CN[C@@H]1C2 [Example 223]
IC50 [1]: ≤ 100 nM | IC50 [2]: ≤ 100 nM

Cc1nc2c(F)c(-c3cccc(Cl)c3Cl)c(CCC#N)cc2c2c1cc([C@H]1C[C@H](n3cc(C4(C)CC4)nn3)CN1C(=O)C1CC1)n2[C@H]1[C@H]2CN[C@@H]1C2 [Example 224]
IC50 [1]: ≤ 100 nM | IC50 [2]: ≤ 100 nM

Cc1nc2c(F)c(-c3cccc(Cl)c3Cl)c(CCC#N)cc2c2c1cc([C@H]1C[C@H](n3cc(C(C)(C)C(F)F)nn3)CN1C(=O)C1CC1)n2[C@H]1C2CNC1C2 (some centres unmarked) [Example 225]
IC50 [1]: ≤ 100 nM | IC50 [2]: ≤ 100 nM

Cc1nc2c(F)c(-c3cccc(Cl)c3Cl)c(CCC#N)cc2c2c1cc([C@H]1C[C@H](OC(C)c3ccccn3)CN1C(=O)C1CC1)n2[C@H]1[C@H]2CN[C@@H]1C2 (some centres unmarked) [Example 226]
IC50 [1]: ≤ 100 nM | IC50 [2]: ≤ 100 nM

Cc1nc2c(F)c(-c3cccc(Cl)c3Cl)c(CCC#N)cc2c2c1cc([C@H]1C[C@H](OC(C)c3c(F)cccc3F)CN1C(=O)C1CC1)n2[C@H]1[C@H]2CN[C@@H]1C2 (some centres unmarked) [Example 227]
IC50 [1]: ≤ 100 nM | IC50 [2]: ≤ 100 nM

Cc1nc2c(F)c(-c3cccc(Cl)c3Cl)c(CCC#N)cc2c2c1cc([C@H]1C[C@H](OC(C)c3ncco3)CN1C(=O)C1CC1)n2[C@H]1[C@H]2CN[C@@H]1C2 (some centres unmarked) [Example 228]
IC50 [1]: ≤ 100 nM | IC50 [2]: ≤ 100 nM

[2H]C([2H])(O[C@H]1C[C@H](c2cc3c(C)nc4c(F)c(-c5cccc(Cl)c5Cl)c(CCC#N)cc4c3n2[C@H]2[C@H]3CN[C@@H]2C3)N(C(=O)C2CC2)C1)c1cc(C)sn1 [Example 229]
IC50 [1]: ≤ 100 nM | IC50 [2]: ≤ 100 nM

Cc1nc2c(F)c(-c3cccc(Cl)c3Cl)c(CCC#N)cc2c2c1cc([C@H]1C[C@H](OC3CC3)CN1C(=O)C1CC1)n2[C@H]1[C@H]2CN[C@@H]1C2 [Example 230]
IC50 [1]: ≤ 100 nM | IC50 [2]: ≤ 100 nM

CCn1cc(CO[C@H]2C[C@H](c3cc4c(C)nc5c(F)c(-c6cccc(Cl)c6Cl)c(CCC#N)cc5c4n3[C@H]3[C@H]4CN[C@@H]3C4)N(C(=O)C3CC3)C2)nn1 [Example 231]
IC50 [1]: ≤ 100 nM | IC50 [2]: ≤ 100 nM

Cc1csnc1CO[C@H]1C[C@H](c2cc3c(C)nc4c(F)c(-c5cccc(Cl)c5Cl)c(CCC#N)cc4c3n2[C@H]2[C@H]3CN[C@@H]2C3)N(C(=O)C2CC2)[C@@H]1C [Example 232]
IC50 [1]: ≤ 100 nM | IC50 [2]: ≤ 100 nM

[2H]C([2H])(O[C@H]1C[C@H](c2cc3c(C)nc4c(F)c(-c5cccc(Cl)c5Cl)c(CCC#N)cc4c3n2[C@H]2[C@H]3CN[C@@H]2C3)N(C(=O)C2CC2)C1)c1nscc1C [Example 233]
IC50 [1]: ≤ 100 nM | IC50 [2]: ≤ 100 nM

Cc1nc2c(F)c(-c3cccc(Cl)c3Cl)c(CCC#N)cc2c2c1cc([C@H]1C[C@H](OCc3nnn(C)c3C)CN1C(=O)C1CC1)n2[C@H]1[C@H]2CN[C@@H]1C2 [Example 234]
IC50 [1]: ≤ 100 nM | IC50 [2]: ≤ 100 nM

Cc1nc2c(F)c(-c3cccc(Cl)c3Cl)c(CCC#N)cc2c2c1cc([C@H]1C[C@H](OCc3cn(C4CC4)nn3)CN1C(=O)C1CC1)n2[C@H]1[C@H]2CN[C@@H]1C2 [Example 235]
IC50 [1]: ≤ 100 nM | IC50 [2]: ≤ 100 nM

CN1CCC(c2nc3c(F)c(-c4cccc(Cl)c4Cl)c(CCC#N)cc3c3c2cc([C@H]2C[C@H](OCc4c(F)cccc4F)CN2C(=O)C2CC2)n3[C@H]2[C@H]3CN[C@@H]2C3)CC1 [Example 236]
IC50 [1]: ≤ 100 nM | IC50 [2]: ≤ 100 nM

[2H]C([2H])(O[C@H]1C[C@H](c2cc3c(C(C)O)nc4c(F)c(-c5cccc(Cl)c5Cl)c(CCC#N)cc4c3n2[C@H]2[C@H]3CN[C@@H]2C3)N(C(=O)C2CC2)C1)c1nscc1C (some centres unmarked) [Example 237]
IC50 [1]: ≤ 100 nM | IC50 [2]: ≤ 100 nM

Cc1nc2c(F)c(-c3cccc(Cl)c3Cl)c(CCC#N)cc2c2c1cc([C@H]1C[C@H](OC3CCCC3)CN1C(=O)C1CC1)n2[C@H]1[C@H]2CN[C@@H]1C2 [Example 238]
IC50 [1]: ≤ 100 nM | IC50 [2]: ≤ 100 nM

N#CCCc1cc2c(nc(C3CCNC3)c3cc([C@H]4C[C@H](OCc5c(F)cccc5F)CN4C(=O)C4CC4)n([C@H]4[C@H]5CN[C@@H]4C5)c32)c(F)c1-c1cccc(Cl)c1Cl (some centres unmarked) [Example 239]
IC50 [1]: ≤ 100 nM | IC50 [2]: ≤ 100 nM

N#CCCc1cc2c(nc(C3=CCS(=O)(=O)CC3)c3cc([C@H]4C[C@H](OCc5c(F)cccc5F)CN4C(=O)C4CC4)n([C@H]4[C@H]5CN[C@@H]4C5)c32)c(F)c1-c1cccc(Cl)c1Cl [Example 240]
IC50 [1]: 100 to 1000 nM | IC50 [2]: ≤ 100 nM

[2H]C([2H])(O[C@H]1C[C@H](c2cc3c(C)nc4c(F)c(-c5cccc(Cl)c5Cl)c(CCC#N)cc4c3n2[C@H]2[C@H]3CN[C@@H]2C3)N(C(=O)C2CC2)[C@@H]1C)c1cc(C)sn1 [Example 241]
IC50 [1]: ≤ 100 nM | IC50 [2]: ≤ 100 nM

[2H]C([2H])(O[C@H]1C[C@H](c2cc3c(C)nc4c(F)c(-c5cccc(Cl)c5Cl)c(CCC#N)cc4c3n2[C@H]2[C@H]3CN[C@@H]2C3)N(C(=O)C2CC2)[C@@H]1C)c1nscc1C [Example 242]
IC50 [1]: ≤ 100 nM | IC50 [2]: ≤ 100 nM

Cc1nc2c(F)c(-c3cccc(Cl)c3Cl)c(CCC#N)cc2c2c1cc([C@H]1C[C@H](OCc3ccccn3)[C@@H](C)N1C(=O)C1CC1)n2[C@H]1[C@H]2CN[C@@H]1C2 [Example 243]
IC50 [1]: ≤ 100 nM | IC50 [2]: ≤ 100 nM

Cc1nc2c(F)c(-c3cccc(Cl)c3Cl)c(CCC#N)cc2c2c1cc([C@H]1C[C@H](O[C@H](C)c3ccccn3)[C@@H](C)N1C(=O)C1CC1)n2[C@H]1[C@H]2CN[C@@H]1C2 [Example 244]
IC50 [1]: ≤ 100 nM | IC50 [2]: ≤ 100 nM

Cc1nc2c(F)c(-c3cccc(Cl)c3Cl)c(CCC#N)cc2c2c1cc([C@H]1C[C@H](O[C@@H](C)c3ccccn3)[C@@H](C)N1C(=O)C1CC1)n2[C@H]1[C@H]2CN[C@@H]1C2 [Example 245]
IC50 [1]: ≤ 100 nM | IC50 [2]: ≤ 100 nM

N#CCCc1cc2c(nc(C3CC4CCCC3N4)c3cc([C@H]4C[C@H](OCc5c(F)cccc5F)CN4C(=O)C4CC4)n([C@H]4[C@H]5CN[C@@H]4C5)c32)c(F)c1-c1cccc(Cl)c1Cl (some centres unmarked) [Example 246]
IC50 [1]: 100 to 1000 nM | IC50 [2]: ≤ 100 nM

COc1ccnc(O[C@H]2C[C@H](c3cc4c(C)nc5c(F)c(-c6cccc(Cl)c6Cl)c(CCC#N)cc5c4n3[C@H]3[C@H]4CN[C@@H]3C4)N(C(=O)C3CC3)C2)n1 [Example 247]
IC50 [1]: ≤ 100 nM | IC50 [2]: ≤ 100 nM

Cc1nc2c(F)c(-c3cccc(Cl)c3Cl)c(CCC#N)cc2c2c1cc([C@H]1C[C@H](Oc3ccccc3OC(F)F)CN1C(=O)C1CC1)n2[C@H]1[C@H]2CN[C@@H]1C2 [Example 248]
IC50 [1]: ≤ 100 nM | IC50 [2]: ≤ 100 nM

Cc1nc2c(F)c(-c3cccc(Cl)c3Cl)c(CCC#N)cc2c2c1cc([C@H]1C[C@H](Oc3ccccc3C#N)CN1C(=O)C1CC1)n2[C@H]1[C@H]2CN[C@@H]1C2 [Example 249]
IC50 [1]: ≤ 100 nM | IC50 [2]: ≤ 100 nM

COc1ccccc1O[C@H]1C[C@H](c2cc3c(C)nc4c(F)c(-c5cccc(Cl)c5Cl)c(CCC#N)cc4c3n2[C@H]2[C@H]3CN[C@@H]2C3)N(C(=O)C2CC2)C1 [Example 250]
IC50 [1]: ≤ 100 nM | IC50 [2]: ≤ 100 nM

Cc1nc2c(F)c(-c3cccc(Cl)c3Cl)c(CCC#N)cc2c2c1cc([C@H]1C[C@H](OCc3ccc(F)cc3)CN1C(=O)C1CC1)n2[C@H]1[C@H]2CN[C@@H]1C2 [Example 251]
IC50 [1]: ≤ 100 nM | IC50 [2]: ≤ 100 nM

COc1ccc(CO[C@H]2C[C@H](c3cc4c(C)nc5c(F)c(-c6cccc(Cl)c6Cl)c(CCC#N)cc5c4n3[C@H]3[C@H]4CN[C@@H]3C4)N(C(=O)C3CC3)C2)c(C#N)c1 [Example 252]
IC50 [1]: ≤ 100 nM | IC50 [2]: ≤ 100 nM

Cc1nc2c(F)c(-c3cccc(Cl)c3Cl)c(CCC#N)cc2c2c1cc([C@H]1C[C@H](OCc3cccnc3Cl)CN1C(=O)C1CC1)n2[C@H]1[C@H]2CN[C@@H]1C2 [Example 253]
IC50 [1]: ≤ 100 nM | IC50 [2]: ≤ 100 nM

Cc1csnc1C(C)O[C@H]1C[C@H](c2cc3c(C)nc4c(F)c(-c5cccc(Cl)c5Cl)c(CCC#N)cc4c3n2[C@H]2[C@H]3CN[C@@H]2C3)N(C(=O)C2CC2)[C@@H]1C (some centres unmarked) [Example 254]
IC50 [1]: ≤ 100 nM | IC50 [2]: ≤ 100 nM

Cc1nc2c(F)c(-c3cccc(Cl)c3Cl)c(CCC#N)cc2c2c1cc([C@H]1C[C@H](OCc3nsc4ccccc34)CN1C(=O)C1CC1)n2[C@H]1[C@H]2CN[C@@H]1C2 [Example 255]
IC50 [1]: ≤ 100 nM | IC50 [2]: ≤ 100 nM

Cc1nc2c(F)c(-c3cccc(Cl)c3Cl)c(CCC#N)cc2c2c1cc([C@H]1C[C@H](OCc3nsc4cc(F)ccc34)CN1C(=O)C1CC1)n2[C@H]1[C@H]2CN[C@@H]1C2 [Example 256]
IC50 [1]: ≤ 100 nM | IC50 [2]: ≤ 100 nM

Cc1nc2c(F)c(-c3cccc(Cl)c3Cl)c(CCC#N)cc2c2c1cc([C@H]1C[C@H](OCc3ccns3)CN1C(=O)C1CC1)n2[C@H]1[C@H]2CN[C@@H]1C2 [Example 257]
IC50 [1]: ≤ 100 nM | IC50 [2]: ≤ 100 nM
